# Source: patent US7348305B2, “Inhibitor of cardiac tachyarrhythmias” (Department of Veterans Affairs, Rehabilitation, priority 2003, dated 2008)
# Entries after “also recorded” stand apart in the source; their conditions may differ. Where two headings read alike, the source gives them in different places.
# Legend:
# [1] = test system: ventricular tachyarrhythmias following LAD coronary artery ligation; assay: Model 1: two-stage LAD coronary artery ligation, Holter EKG monitoring 2-24 hr (ventricular triplets, sustained VT/VF, death); type: in vivo, dog; details: for fastest ventricular triplet rate observed per hour after LAD ligation (FIG. 18, FIG. 32): 4 to 24 hr after LAD ligation; for mortality (dogs died of group): 24 hr after LAD ligation, etanercept 2 mg/kg at -24 and -1 hr, bortezomib 0.0875 mg/kg at -1 and +6 hr, anakinra 10 mg/kg at -1 and +12 hr, control 4 of 10, preliminary
# Description: The two-stage ligation procedure results in a very low incidence of ventricular fibrillation (<5-10%) during the initial 6 hours following coronary artery occlusion (Harris et al., 1951). Almost all ventricular fibrillation occurs during the initial 30 minutes with a high proportion of successful defibrillation. Ambulatory EKG monitoring is performed over the 2-24 hr period following coronary artery ligation. During the 6-24 hr period, a 25-40% incidence of rapid monomorphic ventricular tachycardia (385±15/min) leading to ventricular fibrillation is observed at 13.3±0.8 hours post-LAD ligation (FIG. 1), with a mean duration of monomorphic ventricular tachycardia preceding ventricular fibrillation of 66±7 sec. When provocative ventricular pacing is performed at 24 hours, however, the reentrant substrate supporting sustained ventricular tachycardia is present in more than 80% of the surviving dogs with no difference in rate between spontaneous and pacing-induced sustained monomorphic ventricular tachycardias (FIG. 3).
# In the 24-hr Infarct (Model 1) Studies, each control and etanercept pretreated animal was monitored for ventricular arrhythmias using a Holter 2-lead recording for the duration of time following LAD ligation. […] In the saline control group, 4 animals died at 11-24 hours post ligation. […]
# Model 1: Electrophysiologic correlates of myocardial infarction over a 24-hr period. Eighteen 15-22 kg male mongrel dogs were anesthetized with IV sodium pentobarbital (30 mg/kg). A cuffed endotracheal tube was inserted and the animals were ventilated with room air using a volume-cycled respirator. […] The dogs were extubated and allowed to awaken in a temperature-controlled, humidified small animal post-operative recovery unit. They were given nalbuphine 0.2 mg/kg for post-operative analgesia. During the 2-24 hr period following LAD ligation, Holter monitoring was performed and the two-lead EKG was recorded on magnetic tape. Dogs were re-anesthetized with sodium pentobarbital at 24-hr. The thoracotomy was reopened and the heart was removed and perfused with ice-cold Tyrode's buffer via the left main coronary artery. The outer 0.5-1.5 mm EBZ tissue overlying the infarct was shaved and a longitudinal sample of tissue from the LAD region was stained with triphenyltetrazolium chloride (0.1%) to determine viability of the EBZ. Triphenyltetrazolium (TTZ) forms a brick-red precipitate in the presence of active intracellular dehydrogenases, delineating vital tissue. Non-viable tissues are not stained and remain a pale color. […] Tissue samples from the RS, the EBZ and the infarct tissue were dissected rapidly on an ice-cold surface, placed in freezer vials, and frozen in liquid nitrogen. These samples were then stored at −70° C. for later assay.
# EKG Analysis: Full disclosure EKG records were obtained at 10 mm/sec for the entire 2-24 hour post-occlusion period. All measurements and calculations were made by direct visual observation and manual counting.
# Anti-TNFα Treatment: A dosage of 2 mg/kg hTNFR:Fc (supplied as etanercept, Amgen, Inc, Thousand Oaks, Calif.) or saline were injected IV into a forepaw vein at 24-hr and again 1-hr prior to LAD ligation. […] This dosage was used after consultation with the pharmaceutical corporate pharmacology section and based on unpublished internal data that this dosage would provide maximal sequestration of tissue and circulating TNFα.
# [2] = molecular target: β-adrenergic receptors in epicardium; assay: Action potential shortening with isoproterenol in epicardium; design: species or system dog
# Source text: This information is consistent with increased β-ARK-1 activity and decreased β-adrenergic receptor sensitivity in ventricular myocardium with chronic catecholamine administration or the converse, a decrease in β-ARK-1 with prolonged β-adrenergic receptor blockade (Pye et al., 2003).
# [3] = molecular target: β-adrenergic receptor / adenylate cyclase; details: read-out: mean EC50, isoproterenol-AC activity, SEM, n=4
# Description: FIG. 10 illustrates an isoproterenol-AC activity dose-response curve in EBZ and RS tissue obtained 24 hours after LAD ligation. Data are shown for 1 of 4 experiments. Each point is mean of duplicate samples.
# [4] = test system: ventricular tachyarrhythmias following LAD coronary artery ligation; details: nadolol-treated dogs (Patterson et al., 1986), cited from earlier work
# [5] = test system: proteasome; assay: Proteasome chymotrypsin-like peptidase activity in myocardial tissue (RS, EBZ, INF) after injection; type: in vivo, dog; details: 0.175 mg/kg, INF tissue 23-hr after LAD ligation, n=4, control tissues averaged 45 FU/100 μg protein/min
# Description: (§1) Whole blood was measured at each time interval (FIGS. 29A and 29B), and ischemic myocardial tissue proteasome activity was measured at the final time interval (FIG. 30).
# (§2) Proteasome activity: Activity was determined by proteasome chymotrypsin-like peptidase activity assay. Both cardiac (all groups) and whole blood cell (groups 4 and 5) proteasome activity was assayed. 30 mg frozen cardiac tissue was powdered in liquid nitrogen and sonicated in 0.5 ml buffer. Samples were then centrifuged for 30 min at 10,000 g at 4° C. and the supernatant was used for the assay. For preparing whole blood cell, heparinized blood was washed one time with saline and twice with cold PBS. The cells were lysed with EDTA (5 mM, pH 8.0) for 1 hr and centrifuged at 6600 g for 10 min at 4° C. and the supernatant was used for the assay. 0.4 mM Suc-Ala-Ala-Phe-MAC (Bachem California) was used as substrate. […] The time course for fluorescence was measured using a VICTOR3 Multilabel Counter (Perkin Elmer, Inc) at time 0 and every 5 min for 1 h to estimate the MAC liberated (excitation 380 nm, emission 460 nm). Slopes and intercepts were calculated using Microsoft Excel. Final results were expressed as fluorescence units/μg protein/min.
# [6] = test system: β-adrenergic receptor kinase (βARK); assay: βARK immunoblot of EBZ tissue 24 hr after LAD ligation (Model 1); type: in vivo, dog; details: bortezomib pretreated dog versus saline control, 24-hour infarct
# Description: βARK immunoblots were used to estimate βARK expression (Yu et al., 2000).
# Western Blot Analysis: Assessment of βARK content was conducted using standard SDS-PAGE and immunoblot techniques. Samples containing 100 μg of protein from myocardial extracts were electrophoresed using 10% SDS-PAGE and transferred to nitrocellulose membranes. The membrane was incubated with monoclonal anti-βARK (Upstate Biotechnology, Inc, Lake Placid, N.Y.), followed by exposure to peroxidase-linked anti-mouse IgG. Antibody binding was detected by a chemiluminescent method (ECL, Amersham Biosciences Corp, Piscataway, N.J.). Quantification of immunoreactive proteins was performed by densitometric scanning and with Image QuaNT software (Molecular Dynamics).
# β-ARK, Proteasome and Ubiquitin Expression Assays: β-ARK, ubiquitinated β-ARK and proteasome in EBZ and RS tissues was determined by Western blot analysis. Samples were adjusted after protein concentration was assayed (BCA, Pierce Chemicals) to provide identical loads. 100 μg protein was combined with equal volume of SDS sample buffer, and electrophoresed on a 10% polyacrylamide gel. The blocked membranes were incubated with mouse anti β-ARK monoclonal antibody (Santa Cruz Biotechnology, Santa Cruz, Calif.) for 1-h at room temperature followed by anti-mouse IgG coupled to horseradish peroxidase and developed using an ECL western blotting kit (Amersham). The bands were scanned, stripped and reprobed with mouse anti-ubiquitin antibody (Santa Cruz Biotechnology, Santa Cruz, Calif.). The membrane was rescanned, stripped a second time and reprobed with rabbit anti-proteasome 20S C2 subunit polyclonal antibody (A.G. Scientific, Inc. CA). A separate control gel was included that was similarly treated, but reprobed with the identical Ab and band quality and density compared to the previous data obtained before stripping. Quantitation of immunoreactive bands was performed by densitometric scanning using ImageQuant software (Molecular Dynamics).
# [7] = test system: proteasome; assay: Proteasome chymotrypsin-like peptidase activity in packed whole blood cells after injection; type: in vivo, dog; details: 0.175 mg/kg, 1 hr before and 8 hr after LAD ligation; 1-24 hr after first injection; n=4
# Description: as §1, §2
molecule,measurement,setting,value
anakinra: interleukin-1 antagonist (IL-1 inhibitor),"fastest ventricular triplet rate observed per hour after LAD ligation (FIG. 18, FIG. 32)",[1],no significant difference between etancercept and anakinra
same,mortality (dogs died of group),[1],1 of 7
same,rapid (>300 bpm) ventricular triplets per hour versus control (FIG. 31A),"[1]; etanercept 2 mg/kg, bortezomib 0.0875 mg/kg, anakinra 10 mg/kg",relatively low until 8 hours after LAD and then rose rapidly
CC(C)NCC(O)c1ccc(O)c(O)c1 (centres unmarked) [isoproterenol],EC50,[2]; control normal tissue,0.47 nM
same,EC50,"[2]; remote site normal tissue, 24 hours post LAD ligation",14.3 nM
same,EC50,[3]; EBZ tissue 24 hours after LAD ligation,18 ± 8.9 nM
same,EC50,[3]; RS tissue 24 hours after LAD ligation,73 ± 22 nM
CC(C)(C)NCC(O)COc1cccc2c1CC(O)C(O)C2 (centres unmarked) [nadolol],"incidence of sudden death, 2-24 hr after coronary artery ligation",[4]; FIG. 6,reduce the incidence of sudden death
same,"rate and number of rapid ventricular triplets, 2-24 hr after coronary artery ligation",[4]; FIGS. 7 and 8,reduce both the rate and number of rapid ventricular triplets
same,incidence of pacing-induced sustained monomorphic reentrant tachycardia in surviving animals at 24 hours,[4],without reducing the incidence
same,infarct mass,[4],without altering infarct mass
CC(C)C[C@H](NC(=O)[C@H](Cc1ccccc1)NC(=O)c1cnccn1)B(O)O [bortezomib],myocardial tissue proteasome activity 24-hr after first injection,[5],decreased from control tissues
same,"fastest ventricular triplet rate observed per hour after LAD ligation (FIG. 18, FIG. 32)",[1],marked decrease
same,mortality (dogs died of group),[1],0 of 6
same,very rapid (≧360 bpm) ventricular triplets versus control (FIG. 31B),"[1]; etanercept 2 mg/kg, bortezomib 0.0875 mg/kg",significant descrease; also recorded: no triplets in this range
same,"protection against loss of βARK (GRK2) protein in EBZ, Western immunoblot (FIG. 34)",[6],marked protection against loss of βARK protein; also recorded: significant protection against loss of GRK2 expression
same,packed whole blood proteasome activity after injection,[7],significant decrease in proteasome activity
